How the values were obtained:
HUVEC cells [1] = experiment: Migration assay (trans-well); format: cell-based, human; conditions: without light irradiation; AS16 equivalent 5 μM; 24 h
Experimental: 200 μL serum-free medium containing 2*10^4 HUVEC cells were seeded in the upper chamber of the trans-well and 600 μL full medium was loaded in the lower chamber. Different drugs were added to the upper chamber. The grouping and treatment method as well as the calculation was consistent with above.
(§1) To verify the anti-angiogenic property of nanoLAMPs in vitro, tube formation assay, migration assay, and wound healing assay were also conducted on HUVECs and the concentration of each group was set equal to nanoLAMPs containing 5 μM AS16 peptide.

HUVEC cells [2] = experiment: Wound healing assay; format: cell-based, human; conditions: without light irradiation; AS16 5 μM
Experimental: 5*10^5 HUVEC cells were seeded in the 24-well plates and incubated until they reached 90% confluence. Afterwards, a scratch crossing each well was conducted by 200 μL pipette head. The cells were then be washed with PBS for 2 times to remove the flouting cells and incubated with 1 ml DMEM medium with 5% FBS. The grouping and treatment method was consistent with above. The data of each group was measured and analyzed by Image J and GraphPad Prism, respectively.
as §1

laser induced CNV [3] = experiment: Laser induced CNV mouse model, imageological examination (OCTA, FFA, OCT); format: in vivo, C57BL/6 mice; conditions: i.v. day 3 and 5, AS16 equivalent 2 mg/kg, day 7
Experimental: Four laser spots were produced on the fundus of mice by 810 nm laser to induce CNV. Specifically, C57BL/6 mice (6-8 w) were anesthetized with 1% pentobarbital sodium (40 mg/kg). Then their pupils were dilated with 0.5% tropicamide eyedrops and received local anesthesia by tetracaine eye drops, followed by carboxymethylcellulose sodium eye drops for prevention of ocular surface dehydration. Each mouse's eyes were applied four laser (six in case of western blot analysis) burns (810 nm wavelength, 140 mW of power, 75 μm of spot size, 75 ms of duration) with OcuLight Infrared Laser System at almost equal distance to the optic nerve head. Afterwards, the mice received chloramphenicol eye drops for infection prevention and rested on heating pad until consciousness. […] On day 3 and day 5 after laser photocoagulation, 2 mg/kg AS16 peptide and quantity equivalent nanoLAMPs were administered intravenously through tail veins. […] On day 7 post CNV induction, FFA (fluorescence fundus angiography) and OCTA (optical coherence tomography angiography) images of each group was collected, and the mice were then euthanized. […] Only the scan that passed through the center of the lesion was used to measure the thickness and length of the CNV lesion, which was analyzed and calculated by using ImageJ software and GraphPad Prism. […]

laser induced CNV [4] = experiment: Laser induced CNV mouse model, isolated tissue (choroidal flat mounts CD31/Ki-67, H&E); format: in vivo, C57BL/6 mice; conditions: without light irradiation; systemic administration
Experimental: Four laser spots were produced on the fundus of mice by 810 nm laser to induce CNV. Specifically, C57BL/6 mice (6-8 w) were anesthetized with 1% pentobarbital sodium (40 mg/kg). Then their pupils were dilated with 0.5% tropicamide eyedrops and received local anesthesia by tetracaine eye drops, followed by carboxymethylcellulose sodium eye drops for prevention of ocular surface dehydration. Each mouse's eyes were applied four laser (six in case of western blot analysis) burns (810 nm wavelength, 140 mW of power, 75 μm of spot size, 75 ms of duration) with OcuLight Infrared Laser System at almost equal distance to the optic nerve head. Afterwards, the mice received chloramphenicol eye drops for infection prevention and rested on heating pad until consciousness. […] On day 3 and day 5 after laser photocoagulation, 2 mg/kg AS16 peptide and quantity equivalent nanoLAMPs were administered intravenously through tail veins. […] On day 7 post CNV induction, FFA (fluorescence fundus angiography) and OCTA (optical coherence tomography angiography) images of each group was collected, and the mice were then euthanized. […] Flat-mounted RPE-choroid slides were prepared by making 4 cuts from margin to the optic nerve, and the fluorescence images were acquired by confocal microscopy (LMS980 Carl Zeiss). The CNV lesion area was quantitatively analyzed by ImageJ software. […]

[5] = test system: IL-2 and TNF-α gene expression in Jurkat T cells; experiment: RT-qPCR of cytokine gene expression in Jurkat T cells co-cultured with MDA-MB-231 cells (PD-L1 blockade); format: cell-based; conditions: Jurkat T cells after co-culture with MDA-MB-231 cells; FM12 released from cFM12 nanoparticles; vs PBS control
Excerpt: FIGS. 13A-F. BODIPY-caged FM12 peptide (cFM12) nanoparticles for photo-triggered PD-L1 blockade. […] (E) Size distribution of nanoparticles. (F) Schematic diagram of cFM12 nanoparticles. (*: p<0.05; **: p<0.01; ***: p<0.001). The data are presented as mean±SEM.
To further explore whether the BODIPY photocage can be utilized to deliver other hydrophilic peptides, a peptide inhibitor (FPNWSLRPMNQM, SEQ ID NO: 2, FM12) targeting programmed death ligand 1 (PD-L1) was conjugated with BODIPY at N-terminus to synthesize BODIPY-caged FM12 (cFM12). The conjugate could also form stable polymeric nanoparticles with the help of PEG3.4K-PLA5K. […] For nanoparticle preparation, in brief, 2 μL of 10 mg/mL cFM12 was mixed with 2 μL of 100 mg/mL PEG3.4K-PLA5K in DMSO solution. […] As shown in FIGS. 13e and 13f, the fabricated nanoparticles had well-dispersed size distribution with diameter around 122 nm and PDI around 0.2.

For ATWLPPRAANLLMAAS [AS16 peptide], the HUVEC migration (HUVEC cells [1]) was “least migrated HUVECs”, the “wound healing (recovery of scratches)” value (HUVEC cells [2]) was “significant compromised recovery of generated scratches” and the “CNV area by OCTA” value (laser induced CNV [3]; without light exposure) was “negligible effect”. The “therapeutic effect compared with control group, tests in vivo” value (laser induced CNV [4]) was “negligible therapeutic effect”.
In the case of FPNWSLRPMNQM [FM12 peptide], the “gene expression level of IL-2” value [5] is reported as “promote the gene expression level” and the “gene expression level of TNF-α” value [5] is reported as “promote the gene expression level”.
With COc1ccc(C=CC2=[N+]3C(=C(CO)c4c(C)cc(C=Cc5ccc(OC)cc5)n4[B-]3(C)C)C(C)=C2)cc1 [BODIPY, (3,7-bis((E)-4-methoxystyryl)-1,5,5,9-tetramethyl-5H-4λ4,5λ4-dipyrrolo[1,2-c:2′,1′-f][1,3,2]diazaborinin-10-yl)methanol] the “CNV area by OCTA” value (laser induced CNV [3]; with light irradiation (656 nm, 50mw/cm^2, 5 min)) was “negligible effect”.

Reference: patent US20250177423A1, “PHOTORESPONSIVE PEPTIDE DELIVERY SYSTEM AND METHOD OF USING THE SAME” (THE UNIVERSITY OF HONG KONG, priority 2023, published 2025)
